Activity and Ratio data for one compound are collected here from ChEMBL document CHEMBL3797029, “Purinylpyridinylamino-based DFG-in/αC-helix-out B-Raf inhibitors: Applying mutant versus wild-type B-Raf selectivity indices for compound profiling” (Bioorg Med Chem, 2016).

In assay [1] the target is Dual specificity tyrosine-phosphorylation-regulated kinase 1A (Homo sapiens) (UniProt Q13627). Nature of the assay: Inhibition of partial length wild type human DYRK1A expressed in mammalian system assessed as enzyme activity at 1 uM relative to control. The arrangement: scale not given: the % may be the effect or the level left.
Assay [2] concerns the target Platelet-derived growth factor receptor beta (Homo sapiens) (UniProt P09619). Nature of the assay: Inhibition of partial length wild type human PDGFRbeta expressed in bacterial system assessed as enzyme activity at 1 uM relative to control. Also noted: scale not given: the % may be the effect or the level left.
The target in assay [3] is Aurora kinase A (Homo sapiens) (UniProt O14965). The assay can be described thus: Inhibition of partial length wild type human AURKA expressed in mammalian system assessed as enzyme activity at 1 uM relative to control. Also noted: scale not given: the % may be the effect or the level left.
Assay [4] has as its target MAP kinase-activated protein kinase 2 (Homo sapiens) (UniProt P49137). The assay can be described thus: Inhibition of partial length wild type human MAPKAPK2 expressed in bacterial system assessed as enzyme activity at 1 uM relative to control. The arrangement: scale not given: the % may be the effect or the level left.
In another assay the test system is MIA PaCa-2. Nature of the assay: Selectivity index, ratio of EC50 for wild type B-Raf in human MIAPaCa2 cells to IC50 for B-Raf V600E mutant in human A375 cells. The assay is classed as cell-based.
For assay [5], the target named is Ribosomal protein S6 kinase beta-1 (Homo sapiens) (UniProt P23443). Nature of the assay: Inhibition of partial length wild type human S6K1 expressed in mammalian system assessed as enzyme activity at 1 uM relative to control. The arrangement: scale not given: the % may be the effect or the level left.
The target of assay [6] is Serine/threonine-protein kinase 32B (Homo sapiens) (UniProt Q9NY57). Nature of the assay: Inhibition of full length wild type human YANK2 expressed in bacterial system assessed as enzyme activity at 1 uM relative to control. The arrangement: scale not given: the % may be the effect or the level left.
Assay [7] deals with Serine/threonine-protein kinase PLK1 (Homo sapiens) (UniProt P53350). The assay can be described thus: Inhibition of partial length wild type human PLK1 expressed in mammalian system assessed as enzyme activity at 1 uM relative to control. The arrangement: scale not given: the % may be the effect or the level left.
The target in assay [8] is Dual specificity mitogen-activated protein kinase kinase 3 (Homo sapiens) (UniProt P46734). The assay can be described thus: Inhibition of full length wild type human MEK3 expressed in mammalian system assessed as enzyme activity at 1 uM relative to control. The arrangement: scale not given: the % may be the effect or the level left.
Sequence of Dual specificity mitogen-activated protein kinase kinase 3 (Homo sapiens) (P46734 whole entry): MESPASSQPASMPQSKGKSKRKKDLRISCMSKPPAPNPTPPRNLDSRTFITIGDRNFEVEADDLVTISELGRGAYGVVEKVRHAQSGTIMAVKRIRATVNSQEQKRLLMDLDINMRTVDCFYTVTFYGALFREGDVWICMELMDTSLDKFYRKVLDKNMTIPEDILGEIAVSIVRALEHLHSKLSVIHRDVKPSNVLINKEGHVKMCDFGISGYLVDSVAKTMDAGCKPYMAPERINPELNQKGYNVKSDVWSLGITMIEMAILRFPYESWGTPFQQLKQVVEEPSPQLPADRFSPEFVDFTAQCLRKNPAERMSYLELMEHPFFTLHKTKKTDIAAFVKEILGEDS

Sequence of Platelet-derived growth factor receptor beta (Homo sapiens) (P09619 whole entry): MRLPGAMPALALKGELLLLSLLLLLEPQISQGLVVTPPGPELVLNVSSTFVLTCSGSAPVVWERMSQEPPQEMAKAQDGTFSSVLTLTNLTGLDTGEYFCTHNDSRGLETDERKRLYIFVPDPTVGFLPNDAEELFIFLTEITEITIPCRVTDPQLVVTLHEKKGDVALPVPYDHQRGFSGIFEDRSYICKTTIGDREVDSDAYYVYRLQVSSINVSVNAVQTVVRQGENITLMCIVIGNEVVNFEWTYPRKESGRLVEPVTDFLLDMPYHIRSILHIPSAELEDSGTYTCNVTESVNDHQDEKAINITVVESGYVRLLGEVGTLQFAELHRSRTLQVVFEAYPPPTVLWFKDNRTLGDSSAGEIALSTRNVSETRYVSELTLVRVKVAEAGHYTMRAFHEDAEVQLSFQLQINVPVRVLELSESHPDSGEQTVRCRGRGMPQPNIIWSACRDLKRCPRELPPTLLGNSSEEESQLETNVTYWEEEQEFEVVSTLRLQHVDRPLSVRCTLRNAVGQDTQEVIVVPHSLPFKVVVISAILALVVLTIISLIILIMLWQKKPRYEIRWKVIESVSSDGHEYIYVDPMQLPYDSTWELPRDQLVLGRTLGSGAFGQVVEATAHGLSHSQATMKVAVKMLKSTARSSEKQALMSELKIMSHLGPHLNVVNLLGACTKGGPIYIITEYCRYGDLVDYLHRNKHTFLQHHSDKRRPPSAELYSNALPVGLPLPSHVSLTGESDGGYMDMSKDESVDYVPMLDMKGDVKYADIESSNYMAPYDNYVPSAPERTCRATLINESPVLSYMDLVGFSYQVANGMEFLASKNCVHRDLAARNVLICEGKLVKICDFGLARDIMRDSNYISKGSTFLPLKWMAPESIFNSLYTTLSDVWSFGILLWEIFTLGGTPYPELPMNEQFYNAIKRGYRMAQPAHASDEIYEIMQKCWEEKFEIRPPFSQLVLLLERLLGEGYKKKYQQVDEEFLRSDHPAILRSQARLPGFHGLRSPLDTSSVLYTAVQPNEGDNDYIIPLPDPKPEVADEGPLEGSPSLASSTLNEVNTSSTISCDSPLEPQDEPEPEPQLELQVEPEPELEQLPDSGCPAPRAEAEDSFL
Sequence of Serine/threonine-protein kinase 32B (Homo sapiens) (Q9NY57 whole entry): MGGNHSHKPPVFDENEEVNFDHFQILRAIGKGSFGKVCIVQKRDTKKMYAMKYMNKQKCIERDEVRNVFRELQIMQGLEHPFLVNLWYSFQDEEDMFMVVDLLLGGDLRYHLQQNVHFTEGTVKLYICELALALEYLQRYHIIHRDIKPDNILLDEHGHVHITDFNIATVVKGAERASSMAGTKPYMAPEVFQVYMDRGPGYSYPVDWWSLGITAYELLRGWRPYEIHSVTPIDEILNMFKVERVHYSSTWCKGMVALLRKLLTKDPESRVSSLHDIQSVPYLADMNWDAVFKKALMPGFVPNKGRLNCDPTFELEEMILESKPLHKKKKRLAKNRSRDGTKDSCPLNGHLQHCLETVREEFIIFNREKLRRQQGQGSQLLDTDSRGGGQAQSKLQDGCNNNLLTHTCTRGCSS
Sequence of Serine/threonine-protein kinase PLK1 (Homo sapiens) (P53350 whole entry): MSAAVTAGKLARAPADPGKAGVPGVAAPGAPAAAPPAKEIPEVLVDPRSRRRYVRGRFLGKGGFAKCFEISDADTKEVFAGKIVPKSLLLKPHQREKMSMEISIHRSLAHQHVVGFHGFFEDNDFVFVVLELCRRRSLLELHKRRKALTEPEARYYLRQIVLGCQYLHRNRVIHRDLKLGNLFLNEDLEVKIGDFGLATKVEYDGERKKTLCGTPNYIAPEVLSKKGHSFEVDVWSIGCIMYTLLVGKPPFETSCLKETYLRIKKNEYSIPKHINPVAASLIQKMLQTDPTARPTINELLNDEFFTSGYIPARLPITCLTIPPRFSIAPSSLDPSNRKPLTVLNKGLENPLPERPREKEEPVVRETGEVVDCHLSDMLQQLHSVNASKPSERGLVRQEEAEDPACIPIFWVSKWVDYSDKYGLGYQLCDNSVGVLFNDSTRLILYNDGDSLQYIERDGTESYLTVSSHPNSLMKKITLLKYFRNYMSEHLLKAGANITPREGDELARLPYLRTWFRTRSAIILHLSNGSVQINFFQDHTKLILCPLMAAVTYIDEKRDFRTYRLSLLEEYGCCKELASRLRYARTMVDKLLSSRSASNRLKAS
Sequence of Aurora kinase A (Homo sapiens) (O14965 whole entry): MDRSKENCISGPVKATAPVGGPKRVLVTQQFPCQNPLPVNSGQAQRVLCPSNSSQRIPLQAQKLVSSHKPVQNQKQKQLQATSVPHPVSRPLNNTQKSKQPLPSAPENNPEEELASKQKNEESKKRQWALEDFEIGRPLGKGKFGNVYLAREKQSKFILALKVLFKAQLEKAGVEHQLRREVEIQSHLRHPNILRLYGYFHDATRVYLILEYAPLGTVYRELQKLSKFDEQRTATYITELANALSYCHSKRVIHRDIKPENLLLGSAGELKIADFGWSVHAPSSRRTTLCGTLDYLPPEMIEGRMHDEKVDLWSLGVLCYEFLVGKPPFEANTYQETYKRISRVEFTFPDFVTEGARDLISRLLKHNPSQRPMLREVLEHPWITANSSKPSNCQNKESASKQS
Sequence of Ribosomal protein S6 kinase beta-1 (Homo sapiens) (P23443 whole entry, looked up): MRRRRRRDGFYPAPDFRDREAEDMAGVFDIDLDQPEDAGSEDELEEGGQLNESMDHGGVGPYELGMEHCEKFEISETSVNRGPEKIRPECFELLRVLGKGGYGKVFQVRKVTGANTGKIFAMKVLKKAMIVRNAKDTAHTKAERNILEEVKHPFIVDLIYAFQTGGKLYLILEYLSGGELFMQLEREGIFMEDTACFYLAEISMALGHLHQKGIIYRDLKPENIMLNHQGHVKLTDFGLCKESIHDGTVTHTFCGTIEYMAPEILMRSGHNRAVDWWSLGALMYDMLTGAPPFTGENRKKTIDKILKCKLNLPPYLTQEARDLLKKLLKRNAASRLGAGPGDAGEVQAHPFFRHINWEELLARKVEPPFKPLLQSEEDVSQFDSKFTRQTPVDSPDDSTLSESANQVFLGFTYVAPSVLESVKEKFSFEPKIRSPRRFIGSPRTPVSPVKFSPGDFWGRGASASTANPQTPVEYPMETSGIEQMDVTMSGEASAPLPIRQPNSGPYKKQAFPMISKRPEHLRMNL
Sequence of MAP kinase-activated protein kinase 2 (Homo sapiens) (P49137 whole entry, looked up): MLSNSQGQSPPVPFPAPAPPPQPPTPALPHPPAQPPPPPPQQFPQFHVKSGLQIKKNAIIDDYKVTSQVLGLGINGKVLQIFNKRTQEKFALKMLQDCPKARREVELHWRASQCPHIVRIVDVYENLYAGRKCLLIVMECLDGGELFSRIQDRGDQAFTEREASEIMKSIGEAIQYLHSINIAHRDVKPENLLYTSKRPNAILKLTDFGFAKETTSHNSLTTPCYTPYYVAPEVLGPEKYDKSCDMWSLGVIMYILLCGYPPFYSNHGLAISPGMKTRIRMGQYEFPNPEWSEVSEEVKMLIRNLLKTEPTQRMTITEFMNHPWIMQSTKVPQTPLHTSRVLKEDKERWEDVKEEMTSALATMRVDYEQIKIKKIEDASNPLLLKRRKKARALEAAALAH

For the compound `CN(C)S(=O)(=O)Nc1ccc(F)c(Nc2ncccc2-c2ncnc3[nH]cnc23)c1F`, the Activity in [1] worked out at 96%; in assay [2], 73%; in assay [3], 73%; in [4], 83%; in assay [5], 100%; in assay [6] it was 100%. In addition, the Activity in assay [7] and in [8] was 100% each time. In addition, the Ratio in the assay on MIA PaCa-2 stood at 33.
